Results as given in publication PMC10721329, “Quisinostat is a brain-penetrant radiosensitizer in glioblastoma” (JCI Insight, 2023).
Where “and” joins values, the source holds several entries; their conditions need not be identical. Identical values can stand only once.

Key:
[1] = Stability in human brain homogenate at 37°C; format: in vitro ADME; conditions: for %stability in human brain homogenate, mean / stability in human brain homogenate, [QST], % of control: 37 C; for stability in human brain homogenate, [QST], % of control: single data points
Method: Hydroxamic acid–based compounds have been reported to display poor stability and high plasma clearance due to the presence of arylesterases and carboxylesterases in rodent blood ([34]). Therefore, we measured the stability of QST in mouse plasma and brain to determine whether drug degradation occurred during our sample preparations and equilibrium dialyses for the determination of unbound drug level (performed at 37°C). […] QST degradation was also observed in mouse brain homogenate (Figure 6B). However, perfusion of mice before brain collection prevented rapid drug degradation in the brain matrix. […] Degradation of QST can also be constrained if plasma and brain samples are processed at 4°C (Supplemental Figure 4A). All subsequent sample preparations were therefore performed on ice-cold baths to avoid degradation of QST in our PK analyses. […] The observed stability is probably due to the absence of esterases in human matrices, which are responsible for degradation of QST ([34]). Because we employed QST in several in vitro studies (Figures 1–4), the stability of the molecule was also tested in the cell media used to culture GSCs (neurobasal medium; see Methods).
Stability Study in Mouse Plasma, Mouse Brain, Human Plasma, Human Brain, and Neural […]
The stability of QST was determined in BALB/c mouse plasma, male nude athymic perfused and nonperfused mouse brain homogenate (1:9 w/v of PBS; pH 7.4), human brain (obtained from VRL Eurofins) homogenate (1:4 w/v of PBS; pH 7.4), pooled human plasma (Innovative Research), and neurobasal media. QST stock solutions (1 mM) were prepared in acetonitrile, subsequently diluted in a 40% methanol mixture, and added t o the matrices to make final concentrations of 100 nM or 10 nM. Then 50 or 30 µL of either plasma or brain homogenate containing QST were aliquoted into 1.5-mL microcentrifuge tubes (Eppendorf) and were incubated at either 4 °C or 37 °C for 0, 2, 4, 6, 12, or 24 hours (n = 3 at each time point). […]
Plasma and brain […]
homogenate samples were stored at −80 °C until LC-MS/MS analysis. […]

BT145 cells [2] = assay: Cell cycle analysis, propidium iodide flow cytometry; format: cell-based, human
Method: (§1) For cell cycle analysis following short -term DMSO or QST treatment in GSC cultures, approximately 1 million cells were harvested, washed in cold 1× PBS once, and fixed with 3–4 mL of ice cold 70% ethanol, added dropwise while vortexing. Cells were fixed on ice for 30 minutes and washed twice with 1× PBS. Cells were then resuspended in 500 μL of propidium iodide/RNAse staining buffer (BD Biosciences, 550825) for 15 minutes at room temperature before analysis. Data from all the samples were obtained using a Fortessa flow cytometer (BD Biosciences) and analyzed using the FlowJo software (TreeStar). Cell cycle analysis was performed in triplicate for all cell lines.

GB126 cells [3] = assay: as above; format: cell-based, human
Method: as §1

BT145 cells [4] = assay: γ-H2AX foci immunofluorescence; format: cell-based, human; conditions: BT 145, 75 nM QST, single nuclei
Method: (§2) To test the DNA-damaging effects of QST in GBM cells, we treated 2 independent GSC lines with QST for 72 hours at the IC50 and analyzed changes in the levels of phosphorylated histone H2AX (γ-H2AX), a marker for DNA double-strand breaks (DSBs) ([27]). […]
(§3) anti-GAPDH (1:1000, Cell Signaling Technologies, 97166), rabbit anti-cleaved poly (ADP-ribose) polymerase Asp 214 (1:1000, Cell Signaling, 9541), rabbit anti-BDNF (1:1000, Abcam, ab108319) and mouse anti- β-actin (1:1000, Bio-Rad, MCA5775GA). Membranes were probed with fluorophore-conjugated anti-mouse or anti-rabbit secondary antibodies (1:10,000; ThermoFisher Scientific). Western blots were developed using the LI-COR Odyssey CLx imaging system (LI-COR) and quantitated using the Image Studio Lite software. All Western blots are representative images from a minimum of 3 biological replicates.
(§4) Cells were grown as adherent cultures on laminin -coated glass coverslips (Thermo Fisher Scientific) in GSC media. Twenty-four hours after plating, the cells were treated with QST or DMSO diluted in GSC media. Seventy-two hours after treatment, cells were fixed with 4% paraformaldehyde for 13 minutes at room temperature. Cells were washed with phosphate-buffered saline (PBS) and subsequently permeabilized and blocked with 5% normal goat serum (Sigma Aldrich) and 0.2% Triton X -100 in PBS (blocking solution) for 30 minutes at room temperature. […]
(§5) SuperFrost Plus microscope slides using Fluoroshield Mounting Medium containing DAPI (Abcam). […] The fraction of Ki67- and Cleaved Caspase 3– positive cells were counted from 5 independent images from each condition. The mean and standard deviation were calculated from 3 biological replicates for all control and QST-treated […]
(§6) For cell cycle analysis following short -term DMSO or QST treatment in GSC cultures, approximately 1 million cells were harvested, washed in cold 1× PBS once, and fixed with 3–4 mL of ice cold 70% ethanol, added dropwise while vortexing. […] Data from all the samples were obtained using a Fortessa flow cytometer (BD Biosciences) and analyzed using the FlowJo software (TreeStar). […]

GB126 cells [5] = assay: γ-H2AX foci immunofluorescence; format: cell-based, human; conditions: 86 nM QST, value per individual nucleus, image series of replicate experiments
Method: as §2, §3, §4, §5, §6

[6] = QST at IC50, 24 hours, replicates

Cn1cc(CNCC2CCN(c3ncc(C(=O)NO)cn3)CC2)c2ccccc21 [QST, quisinostat]
%stability in human brain homogenate, mean ([1]; 10 nM, 0 hrs): 100 % of control
stability in human brain homogenate, [QST], % of control ([1]; 10 nM, 0 hrs): 101.7 % of control and 98.5 % of control and 98.3 % of control
%stability in human brain homogenate, mean ([1]; 10 nM, 2 hrs): 90.6 % of control
stability in human brain homogenate, [QST], % of control ([1]; 10 nM, 2 hrs): 87.5 % of control and 89.1 % of control and 95.1 % of control
%stability in human brain homogenate, mean ([1]; 10 nM, 6 hrs): 94.8 % of control
stability in human brain homogenate, [QST], % of control ([1]; 10 nM, 6 hrs): 95.6 % of control and 93.7 % of control and 94.9 % of control
%stability in human brain homogenate, mean ([1]; 10 nM, 24 hrs): 82.9 % of control
stability in human brain homogenate, [QST], % of control ([1]; 10 nM, 24 hrs): 83.1 % of control and 81 % of control and 84.6 % of control
%stability in human brain homogenate, mean ([1]; 100 nM, 0 hrs): 100 % of control
stability in human brain homogenate, [QST], % of control ([1]; 100 nM, 0 hrs): 98.8 % of control and 102.5 % of control and 98.7 % of control
%stability in human brain homogenate, mean ([1]; 100 nM, 2 hrs): 89.0 % of control
stability in human brain homogenate, [QST], % of control ([1]; 100 nM, 2 hrs): 90.7 % of control and 89.5 % of control and 86.8 % of control
%stability in human brain homogenate, mean ([1]; 100 nM, 6 hrs): 92.7 % of control
stability in human brain homogenate, [QST], % of control ([1]; 100 nM, 6 hrs): 93.9 % of control and 90.6 % of control and 93.7 % of control
%stability in human brain homogenate, mean ([1]; 100 nM, 24 hrs): 84.4 % of control
stability in human brain homogenate, [QST], % of control ([1]; 100 nM, 24 hrs): 81.6 % of control and 84.2 % of control and 87.3 % of control
stability in human brain homogenate ([1]; 37°C): completely stable
Cell Cycle Phase (% of cells), G1 (BT145 cells [2]; [6]): 33.6% and 37% and 36.8%
Cell Cycle Phase (% of cells), G2 (BT145 cells [2]; [6]): 48.8% and 41.5% and 48%
Cell Cycle Phase (% of cells), S (BT145 cells [2]; [6]): 16.4% and 20.3% and 13.8%
Mean proportion of cells in G1 (BT145 cells [2]; QST, 24 hours): 36%
Mean proportion of cells in G2 (BT145 cells [2]; QST, 24 hours): 46%
Mean proportion of cells in S (BT145 cells [2]; QST, 24 hours): 17%
Cell Cycle Phase, G1 (GB126 cells [3]; [6]): 37.77 and 45.07 and 43.79
Cell Cycle Phase, G2 (GB126 cells [3]; [6]): 7.41 and 0 and 1.63
Cell Cycle Phase, S (GB126 cells [3]; [6]): 54.82 and 54.93 and 54.58
Mean proportion of cells in G1 (GB126 cells [3]; QST, 24 hours): 42%
Mean proportion of cells in G2 (GB126 cells [3]; QST, 24 hours): 3%
Mean proportion of cells in S (GB126 cells [3]; QST, 24 hours): 55%
Number of foci/ Nucleus (ƴH2AX) (BT145 cells [4]): 12
ƴH2AX Number of foci/ Nucleus (BT145 cells [4]; replicates n=1 to n=3): 12
Number of foci/ Nucleus (γH2AX) (GB126 cells [5]): 12
